Assay results from patent US12611453B2, “Method of inducing an HIV-1-specific immune response using a chimpanzee adenovirus vector encoding an hivacat t-cell immunogen and TLR7 agonist” (Gilead Sciences, Inc., priority 2019, dated 2026).

Tests used:
Type in all cases: in vitro ADME
[1] = target: cytochrome P450 (CYP) 3A4 enzyme (CYP3A) (Homo sapiens, UniProt P08684); assay: in vitro metabolism by cytochrome P450 3A4
Source text: (§1) Any ART agents known to inhibit or induce CYP3A, P-glycoprotein, or breast cancer resistance protein are excluded from use in this study during treatment (Period 1). For those participants who may be on a regimen including one of these medications, a regimen switch from one of the prohibited medication to an allowed medication is permitted between the screening and baseline visits. The following agents are excluded from the ART regimen during the study: HIV protease inhibitors (including low-dose ritonavir), cobicistat-containing regimens, elvitegravir, efavirenz, etravirine, and nevirapine.

CYP2C8 = target: T1, CYP2C8 (Homo sapiens, UniProt P10632); assay: in vitro metabolism by CYP2C8
T1 sequence (P10632 1-490): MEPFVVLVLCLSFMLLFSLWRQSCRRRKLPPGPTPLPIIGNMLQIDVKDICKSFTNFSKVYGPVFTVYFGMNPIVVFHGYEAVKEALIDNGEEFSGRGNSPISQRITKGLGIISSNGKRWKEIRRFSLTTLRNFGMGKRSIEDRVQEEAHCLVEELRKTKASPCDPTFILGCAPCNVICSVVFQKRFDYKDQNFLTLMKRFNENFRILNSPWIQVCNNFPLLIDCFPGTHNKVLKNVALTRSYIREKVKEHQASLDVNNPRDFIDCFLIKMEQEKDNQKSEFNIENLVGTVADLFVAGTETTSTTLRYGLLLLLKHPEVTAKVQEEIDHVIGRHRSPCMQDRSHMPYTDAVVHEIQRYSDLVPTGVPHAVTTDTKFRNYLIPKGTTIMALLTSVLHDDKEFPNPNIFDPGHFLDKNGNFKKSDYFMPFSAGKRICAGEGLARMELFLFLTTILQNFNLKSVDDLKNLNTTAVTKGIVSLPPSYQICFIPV
Source text: as §1

[2] = target: T2, breast cancer resistance protein (Homo sapiens, UniProt Q9UNQ0); assay: in vitro breast cancer resistance protein substrate assessment
T2 sequence (Q9UNQ0 1-655): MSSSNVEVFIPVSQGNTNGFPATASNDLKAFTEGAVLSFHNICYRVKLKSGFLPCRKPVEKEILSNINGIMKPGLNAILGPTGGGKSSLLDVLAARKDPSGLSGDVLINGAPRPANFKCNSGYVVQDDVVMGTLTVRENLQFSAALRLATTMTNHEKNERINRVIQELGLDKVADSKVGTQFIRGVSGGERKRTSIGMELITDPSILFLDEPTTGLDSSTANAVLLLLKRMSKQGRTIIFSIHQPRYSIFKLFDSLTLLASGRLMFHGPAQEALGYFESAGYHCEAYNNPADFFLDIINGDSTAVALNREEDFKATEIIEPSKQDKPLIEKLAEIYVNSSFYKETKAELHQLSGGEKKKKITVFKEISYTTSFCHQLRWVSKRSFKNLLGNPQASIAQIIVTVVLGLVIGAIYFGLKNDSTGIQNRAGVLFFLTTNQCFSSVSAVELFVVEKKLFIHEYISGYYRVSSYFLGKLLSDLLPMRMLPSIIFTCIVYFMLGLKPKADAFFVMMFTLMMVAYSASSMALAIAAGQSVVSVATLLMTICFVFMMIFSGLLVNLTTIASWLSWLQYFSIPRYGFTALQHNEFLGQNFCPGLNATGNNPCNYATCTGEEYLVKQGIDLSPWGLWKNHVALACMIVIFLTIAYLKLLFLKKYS
Source text: as §1

CYP2D6 = CYP2D6 (Homo sapiens, UniProt P10635); assay: in vitro metabolism by CYP2D6
P-glycoprotein = P-glycoprotein (Homo sapiens, UniProt P08183); assay: in vitro P-glycoprotein substrate assessment
Source text: as §1

Chain of cytochrome P450 (CYP) 3A4 enzyme (CYP3A) (P08684 whole entry): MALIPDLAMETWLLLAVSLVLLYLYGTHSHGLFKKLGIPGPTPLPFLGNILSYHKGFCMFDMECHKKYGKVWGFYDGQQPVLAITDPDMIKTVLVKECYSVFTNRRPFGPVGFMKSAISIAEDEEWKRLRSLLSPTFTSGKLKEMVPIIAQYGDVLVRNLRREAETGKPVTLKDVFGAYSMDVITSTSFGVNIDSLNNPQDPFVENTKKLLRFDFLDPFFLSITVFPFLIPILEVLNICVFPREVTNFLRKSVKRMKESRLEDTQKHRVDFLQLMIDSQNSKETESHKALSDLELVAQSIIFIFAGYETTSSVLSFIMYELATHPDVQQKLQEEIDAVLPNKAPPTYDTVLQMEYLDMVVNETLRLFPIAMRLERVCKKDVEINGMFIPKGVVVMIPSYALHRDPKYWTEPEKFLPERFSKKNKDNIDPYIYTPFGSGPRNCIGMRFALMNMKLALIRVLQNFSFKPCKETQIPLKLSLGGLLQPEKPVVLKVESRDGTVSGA
Chain of P-glycoprotein (P08183 whole entry): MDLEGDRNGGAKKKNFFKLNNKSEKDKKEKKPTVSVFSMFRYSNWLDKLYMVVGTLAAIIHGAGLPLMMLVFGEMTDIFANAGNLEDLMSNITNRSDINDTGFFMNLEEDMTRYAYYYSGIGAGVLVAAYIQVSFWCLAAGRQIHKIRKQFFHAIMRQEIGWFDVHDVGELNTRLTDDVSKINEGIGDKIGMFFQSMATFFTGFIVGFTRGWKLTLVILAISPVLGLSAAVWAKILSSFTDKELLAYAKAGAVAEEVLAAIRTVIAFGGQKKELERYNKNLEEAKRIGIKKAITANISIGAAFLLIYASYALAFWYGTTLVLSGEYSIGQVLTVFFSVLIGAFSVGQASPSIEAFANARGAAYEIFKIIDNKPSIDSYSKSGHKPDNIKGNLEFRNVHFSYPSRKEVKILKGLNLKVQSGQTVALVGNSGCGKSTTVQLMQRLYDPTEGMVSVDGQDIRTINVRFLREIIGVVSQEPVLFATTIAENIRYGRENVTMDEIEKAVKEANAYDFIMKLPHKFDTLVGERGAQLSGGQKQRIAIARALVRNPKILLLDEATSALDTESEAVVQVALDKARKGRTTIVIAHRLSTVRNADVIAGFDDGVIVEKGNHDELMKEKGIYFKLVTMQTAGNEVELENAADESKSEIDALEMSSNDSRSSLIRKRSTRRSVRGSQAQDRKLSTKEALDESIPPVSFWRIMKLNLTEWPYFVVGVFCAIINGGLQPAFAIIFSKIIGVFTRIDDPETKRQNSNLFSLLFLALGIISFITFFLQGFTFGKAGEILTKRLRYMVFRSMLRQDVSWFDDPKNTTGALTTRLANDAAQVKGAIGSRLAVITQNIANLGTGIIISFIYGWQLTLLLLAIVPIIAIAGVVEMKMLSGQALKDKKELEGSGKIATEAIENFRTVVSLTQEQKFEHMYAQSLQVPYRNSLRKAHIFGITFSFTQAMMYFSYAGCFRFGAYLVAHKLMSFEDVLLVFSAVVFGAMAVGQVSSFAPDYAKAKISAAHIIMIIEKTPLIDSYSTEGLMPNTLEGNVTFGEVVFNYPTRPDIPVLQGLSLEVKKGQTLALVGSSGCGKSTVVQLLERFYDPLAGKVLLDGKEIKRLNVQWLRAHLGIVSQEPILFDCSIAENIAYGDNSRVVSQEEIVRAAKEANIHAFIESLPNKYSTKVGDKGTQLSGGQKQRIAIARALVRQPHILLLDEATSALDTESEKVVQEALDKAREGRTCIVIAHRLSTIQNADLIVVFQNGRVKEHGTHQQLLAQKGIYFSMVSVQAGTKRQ
Chain of CYP2D6 (P10635 whole entry): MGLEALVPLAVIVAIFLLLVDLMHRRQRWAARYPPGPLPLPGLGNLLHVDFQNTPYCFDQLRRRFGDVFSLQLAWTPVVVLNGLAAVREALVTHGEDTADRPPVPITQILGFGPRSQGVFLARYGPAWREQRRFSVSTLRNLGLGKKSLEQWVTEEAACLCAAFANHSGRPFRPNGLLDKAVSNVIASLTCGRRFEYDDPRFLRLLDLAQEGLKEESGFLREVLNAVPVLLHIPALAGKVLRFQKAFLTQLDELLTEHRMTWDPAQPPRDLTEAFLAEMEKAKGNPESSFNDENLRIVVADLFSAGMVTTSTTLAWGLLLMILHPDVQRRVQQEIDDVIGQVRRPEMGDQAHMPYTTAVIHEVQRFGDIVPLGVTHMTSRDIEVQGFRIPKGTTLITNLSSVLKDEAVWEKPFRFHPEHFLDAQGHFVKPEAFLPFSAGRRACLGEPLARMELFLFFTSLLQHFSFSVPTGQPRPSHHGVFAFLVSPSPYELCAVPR

CCCCOc1nc(N)c2c(n1)N(Cc1cccc(CN3CCCC3)c1)CC(=O)N2 [compound of Formula (I)]
metabolism by CYP3A4 (contribution to metabolism) [1]: predominantly metabolized | metabolism by CYP2C8 (contribution to metabolism) (CYP2C8): minor contributions | substrate of breast cancer resistance protein [2]: substrate | metabolism by CYP2D6 (contribution to metabolism) (CYP2D6): minor contributions | substrate of P-glycoprotein (P-glycoprotein): substrate
